Blank lines part the entries; values can stand above or below the compound they belong to. Square brackets hold non-standard residues; d marks the D form. Peptide text beside a SMILES is read from it. * marks the point of attachment. GlcA(β-D,1-O-dodecyl) = CCCCCCCCCCCCO[C@@H]1O[C@H](C(=O)*)[C@@H](O)[C@H](O)[C@H]1O; αMeF = C[C@](N)(Cc1ccccc1)C(=O)O; Ac4c = NC1(C(=O)O)CCC1; Aib = CC(C)(N)C(=O)O
How the values were obtained:
GLP-1 R = target: T1, GLP-1 R (Mus musculus, UniProt O35659); assay: Cerep cellular assay, stimulation of cAMP levels, GLP-1 (murine cell line); format: cell-based; design: key: §means superagonist; n.c. means EC50 not calculable; conditions: for EC50 GLP-1 R (nM): n.c. = EC50 not calculable
T1 construct: GLP-1 (murine cell line) cellular assays
T1 sequence (O35659 22-463): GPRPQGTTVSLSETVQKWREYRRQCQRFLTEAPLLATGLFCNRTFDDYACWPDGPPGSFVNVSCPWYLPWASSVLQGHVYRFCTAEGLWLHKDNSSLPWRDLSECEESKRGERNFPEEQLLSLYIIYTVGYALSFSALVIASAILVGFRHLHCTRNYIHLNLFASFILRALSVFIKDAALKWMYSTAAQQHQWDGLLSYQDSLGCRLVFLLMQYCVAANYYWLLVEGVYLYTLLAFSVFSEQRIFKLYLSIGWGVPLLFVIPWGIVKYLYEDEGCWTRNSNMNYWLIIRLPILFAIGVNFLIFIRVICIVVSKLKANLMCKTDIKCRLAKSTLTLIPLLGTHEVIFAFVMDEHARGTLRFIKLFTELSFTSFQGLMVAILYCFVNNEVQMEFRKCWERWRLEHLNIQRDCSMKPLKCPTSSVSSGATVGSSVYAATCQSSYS
Method: (§1) Compounds were weighed precisely in an amount of about 1 mg and assayed in standard cellular assays (Cerep SA). The readout was the amount of cAMP generated in the cells treated with the test compounds, in either agonist or antagonist mode. […] The assays are described in Chicchi et al., J. Biol. Chem., 272:7765-7769 (1997) and Runge et al., Br. J. Pharmacol., 138:787-794 (2003).

[1] = incubation in human plasma at 30° C, in 4 hours
Glucagon R = target: T2, Glucagon R (Homo sapiens, UniProt P47871); assay: Cerep cellular assay, stimulation of cAMP levels, glucagon (human, cloned into CHO cells); format: cell-based; conditions: human receptor in CHO cells (Cerep)
T2 construct: host or cells: CHO cells
Method: as §1

human GLP-1 receptor = target: T3, human GLP-1 receptor (Homo sapiens, UniProt P43220); assay: DiscoveRx LeadHunter cellular assay, cAMP stimulation, GLP-1 receptor in CHO cells; format: cell-based; conditions: human GLP-1 receptor in CHO cells (DiscoveRx); read-out: EC50 cAMP GLP-1 R
T3 construct: host or cells: CHO cells

human glucagon receptor = target: T4, human glucagon receptor (Homo sapiens, UniProt P47871); assay: DiscoveRx LeadHunter cellular assay, cAMP stimulation, glucagon receptor in CHO cells; format: cell-based
T4 construct: host or cells: CHO cells

DIO C57BL/6J mice = assay: Activity in diet-induced obese (DIO) mice; format: in vivo
Method: Fifty diet-induced obese (DIO) C57BL/6J male mice (JAX Labs) were received at 6 wks of age. The mice were ear notched for identification and housed individually in positively ventilated polycarbonate cages with HEPA-filtered air at a density of […]. The animal room was lit entirely with artificial fluorescent lighting, with a controlled 12 hr light/dark cycle. The normal temperature and relative humidity ranges in the animal rooms were 22±4° C. and 50±15%, respectively. Filtered tap water, acidified to a pH of 2.8-3.1, and a high-fat diet (Research Diets D12492, 60 kcal %) were provided ad libitum.
Following a 2 week acclimation, the 50 mice were randomized into groups (n=10): Group 1: treated with vehicle; Group 2: low-dose EU-A994; Group 3: high-dose […]; Group 4: low-dose EU-A1024; and Group 5: high-dose EU-A1024. Mice were dosed subcutaneously on days 1 (at 0 and 7 hr), 3, 6, 9, 12, 15, 18, 21 and 24. Body weight and cage-side observations were recorded daily. Food and water intake was recorded weekly. Mice underwent NMR measurements for determination of whole-body fat and lean composition on days 1 (pre-dose) and 26. On day 26, mice were fasted overnight for an oral glucose tolerance test. Next day, the first blood sample was collected via tail nick (t=0). Mice were then administered a bolus of 1.0 g/kg glucose. Blood samples were obtained via tail nick at 0, 15, 30, 60, 90 and 120 min after glucose dosing, and plasma glucose was immediately determined using a glucometer.
Mice were sacrificed on day 28. Terminal blood was processed to serum/plasma, and aliquots were sent for analysis of glucose, insulin and lipid profile. Body composition was determined by NMR.

[2] = days 1 (pre-dose) and 26 (FIG. 11)
[3] = sc on days 1 (0 and 7 hr), 3, 6, 9, 12, 15, 18, 21 and 24

T3 sequence (P43220 24-463): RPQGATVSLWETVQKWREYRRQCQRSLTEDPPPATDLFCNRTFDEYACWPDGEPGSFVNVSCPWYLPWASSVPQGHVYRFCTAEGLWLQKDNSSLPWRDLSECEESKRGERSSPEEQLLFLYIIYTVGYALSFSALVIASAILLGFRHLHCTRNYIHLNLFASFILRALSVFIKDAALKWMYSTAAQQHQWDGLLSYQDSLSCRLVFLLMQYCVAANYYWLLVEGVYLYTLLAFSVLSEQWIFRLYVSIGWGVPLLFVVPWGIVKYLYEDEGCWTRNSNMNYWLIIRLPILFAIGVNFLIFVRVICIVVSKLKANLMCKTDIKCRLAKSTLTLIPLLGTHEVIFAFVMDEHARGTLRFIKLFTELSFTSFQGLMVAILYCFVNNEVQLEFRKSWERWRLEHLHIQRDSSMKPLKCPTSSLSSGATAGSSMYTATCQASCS
T2 sequence (P47871 26-477): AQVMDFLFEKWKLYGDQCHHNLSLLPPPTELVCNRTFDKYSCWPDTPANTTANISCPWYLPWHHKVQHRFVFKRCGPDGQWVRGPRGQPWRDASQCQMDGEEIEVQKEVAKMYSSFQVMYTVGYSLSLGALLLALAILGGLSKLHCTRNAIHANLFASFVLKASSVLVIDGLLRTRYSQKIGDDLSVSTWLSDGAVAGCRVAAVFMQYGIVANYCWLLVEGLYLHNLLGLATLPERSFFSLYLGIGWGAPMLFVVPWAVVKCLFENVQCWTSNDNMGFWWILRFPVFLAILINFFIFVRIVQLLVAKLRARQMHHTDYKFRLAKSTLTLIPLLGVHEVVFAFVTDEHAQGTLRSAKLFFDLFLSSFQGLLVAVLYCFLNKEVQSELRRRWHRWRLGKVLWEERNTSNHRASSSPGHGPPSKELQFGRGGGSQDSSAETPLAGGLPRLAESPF
T4 sequence (P47871 26-477): as above

EC50 GLP-1 R (nM) (GLP-1 R): n.c.
SMILES: CCCCCCCCCCCCCCO[C@@H]1O[C@H](C(=O)NCCCC[C@@H]2NC(=O)[C@H](CCC(N)=O)NC(=O)[C@@H](NC(=O)[C@H](CC(=O)O)NC(=O)[C@H](CC(C)C)NC(=O)[C@H](Cc3ccc(O)cc3)NC(=O)[C@H](CCCCN)NC(=O)[C@H](CO)NC(=O)[C@H](Cc3ccc(O)cc3)NC(=O)[C@H](CC(=O)O)NC(=O)[C@H](CO)NC(=O)[C@@H](NC(=O)[C@H](Cc3ccccc3)NC(=O)[C@@H](NC(=O)CNC(=O)[C@H](CCC(N)=O)NC(=O)C(C)(C)NC(=O)[C@@H](N)Cc3c[nH]cn3)[C@@H](C)O)[C@@H](C)O)CCC(=O)NCCCC[C@@H](C(N)=O)NC(=O)[C@H](C)NC2=O)[C@@H](O)[C@H](O)[C@H]1O [EU-A540]

EC50 GLP-1 R (nM) (GLP-1 R): n.c.
SMILES: CCCCCCCCCCCCO[C@@H]1O[C@H](C(=O)NCCCC[C@H](NC(=O)[C@H](CO)NC(=O)[C@H](CC(=O)O)NC(=O)[C@H](CC(C)C)NC(=O)[C@H](Cc2ccc(O)cc2)NC(=O)[C@H](CCCCN)NC(=O)[C@H](CO)NC(=O)[C@H](Cc2ccc(O)cc2)NC(=O)[C@H](CC(=O)O)NC(=O)[C@H](CO)NC(=O)[C@@H](NC(=O)[C@H](Cc2ccccc2)NC(=O)[C@@H](NC(=O)CNC(=O)[C@H](CCC(N)=O)NC(=O)C(C)(C)NC(=O)[C@@H](N)Cc2c[nH]cn2)[C@@H](C)O)[C@@H](C)O)C(=O)N[C@@H](CCCNC(=N)N)C(=O)NC(C)(C)C(N)=O)[C@@H](O)[C@H](O)[C@H]1O [EU-A529]

EC50 GLP-1 R (nM) (GLP-1 R): n.c.
SMILES: CCCCCCCCCCCCO[C@@H]1O[C@H](C(=O)NCCCC[C@H](NC(=O)[C@H](CC(=O)O)NC(=O)[C@H](CC(C)C)NC(=O)[C@H](Cc2ccc(O)cc2)NC(=O)[C@H](CCCCN)NC(=O)[C@H](CO)NC(=O)[C@H](Cc2ccc(O)cc2)NC(=O)[C@H](CC(=O)O)NC(=O)[C@H](CO)NC(=O)[C@@H](NC(=O)[C@H](Cc2ccccc2)NC(=O)[C@@H](NC(=O)CNC(=O)[C@H](CCC(N)=O)NC(=O)C(C)(C)NC(=O)[C@@H](N)Cc2c[nH]cn2)[C@@H](C)O)[C@@H](C)O)C(=O)NC2(C(N)=O)CCC2)[C@@H](O)[C@H](O)[C@H]1O [EU-A522] (H-H[Aib]QGTFTSDYSKYLDK(GlcA(β-D,1-O-dodecyl))[Ac4c]-NH2; N-terminus assumed)

SMILES: CCCCCCCCCCCCCCO[C@@H]1O[C@H](C(=O)NCCCC[C@H](NC(=O)[C@H](CCCNC(=N)N)NC(=O)[C@H](CO)NC(=O)[C@H](CC(=O)O)NC(=O)[C@H](CC(C)C)NC(=O)[C@H](Cc2ccc(O)cc2)NC(=O)[C@H](CCCCN)NC(=O)[C@H](CO)NC(=O)[C@H](Cc2ccc(O)cc2)NC(=O)[C@H](CC(=O)O)NC(=O)[C@H](CO)NC(=O)[C@@H](NC(=O)[C@H](Cc2ccccc2)NC(=O)[C@@H](NC(=O)CNC(=O)[C@H](CCC(N)=O)NC(=O)C(C)(C)NC(=O)[C@@H](N)Cc2c[nH]cn2)[C@@H](C)O)[C@@H](C)O)C(=O)NC(C)(C)C(N)=O)[C@@H](O)[C@H](O)[C@H]1O [EU-A535]
efficacy class at GLP-1 R (mark in EC50 cell) (GLP-1 R): §4800

EC50 GLP-1 R (nM) (GLP-1 R): n.c.
SMILES: CCCCCCCCCCCCO[C@@H]1O[C@H](C(=O)NCCCC[C@H](NC(=O)[C@H](CO)NC(=O)[C@H](CC(=O)O)NC(=O)[C@H](CC(C)C)NC(=O)[C@H](Cc2ccc(O)cc2)NC(=O)[C@H](CCCCN)NC(=O)[C@H](CO)NC(=O)[C@H](Cc2ccc(O)cc2)NC(=O)[C@H](CC(=O)O)NC(=O)[C@H](CO)NC(=O)[C@@H](NC(=O)[C@H](Cc2ccccc2)NC(=O)[C@@H](NC(=O)CNC(=O)[C@H](CCC(N)=O)NC(=O)C(C)(C)NC(=O)[C@@H](N)Cc2c[nH]cn2)[C@@H](C)O)[C@@H](C)O)C(=O)NC(C)(C)C(N)=O)[C@@H](O)[C@H](O)[C@H]1O [EU-A527]

SMILES: CC[C@H](C)[C@H](NC(=O)[C@H](Cc1ccccc1)NC(=O)[C@H](CCC(=O)O)NC(=O)[C@H](CCCCN)NC(=O)[C@H](C)NC(=O)[C@H](C)NC(=O)[C@H](CCC(N)=O)NC(=O)CNC(=O)[C@H](CCC(=O)O)NC(=O)[C@H](CC(C)C)NC(=O)[C@H](Cc1ccc(O)cc1)NC(=O)[C@H](CO)NC(=O)[C@H](CO)NC(=O)[C@@H](NC(=O)[C@H](CC(=O)O)NC(=O)[C@H](CO)NC(=O)[C@@H](NC(=O)[C@H](Cc1ccccc1)NC(=O)[C@@H](NC(=O)CNC(=O)[C@H](CCC(=O)O)NC(=O)[C@H](C)NC(=O)[C@@H](N)Cc1c[nH]cn1)[C@@H](C)O)[C@@H](C)O)C(C)C)C(=O)N[C@@H](C)C(=O)N[C@@H](Cc1c[nH]c2ccccc12)C(=O)N[C@@H](CC(C)C)C(=O)N[C@H](C(=O)N[C@@H](CCCCN)C(=O)NCC(=O)N[C@@H](CCCNC(=N)N)C(N)=O)C(C)C [GLP-1(7-36)]
cleavage of compound in human plasma (compound signal versus time) [1]: essentially complete cleavage

SMILES: CCCCCCCCCCCCO[C@@H]1O[C@H](C(=O)NCCCC[C@H](NC(=O)C(C)(C)NC(=O)[C@H](CC(=O)O)NC(=O)[C@H](CC(C)C)NC(=O)[C@H](Cc2ccc(O)cc2)NC(=O)[C@H](CCCCN)NC(=O)[C@H](CO)NC(=O)[C@H](Cc2ccc(O)cc2)NC(=O)[C@H](CC(=O)O)NC(=O)[C@H](CO)NC(=O)[C@@H](NC(=O)[C@](C)(Cc2ccccc2)NC(=O)[C@@H](NC(=O)CNC(=O)[C@H](CCC(N)=O)NC(=O)C(C)(C)NC(=O)[C@@H](N)Cc2c[nH]cn2)[C@@H](C)O)[C@@H](C)O)C(N)=O)[C@@H](O)[C@H](O)[C@H]1O [EU-A391] (H-H[Aib]QGT[αMeF]TSDYSKYLD[Aib]K(GlcA(β-D,1-O-dodecyl))-NH2; N-terminus assumed)
GCGR cellular response (Glucagon R): did not change

EC50 (human GLP-1 receptor): 0.005 nM | EC50 (human glucagon receptor): 0.035 nM
SMILES: CCCCCCCCCCCCCCO[C@@H]1O[C@H](CO[C@H]2O[C@H](C(=O)NCCCC[C@H](NC(=O)[C@@H](NC(=O)[C@H](Cc3ccccc3)NC(=O)[C@H](CCC(=O)O)NC(=O)[C@@H]3CCCCNC(=O)CC[C@H](NC(=O)[C@H](CC(=O)O)NC(=O)[C@H](CC(C)C)NC(=O)[C@H](Cc4ccc(O)cc4)NC(=O)[C@H](CCCCN)NC(=O)[C@H](CO)NC(=O)[C@H](Cc4ccc(O)cc4)NC(=O)[C@H](CC(=O)O)NC(=O)[C@H](CO)NC(=O)[C@@H](NC(=O)[C@H](Cc4ccccc4)NC(=O)[C@@H](NC(=O)CNC(=O)[C@H](CCC(N)=O)NC(=O)C(C)(C)NC(=O)[C@@H](N)Cc4c[nH]cn4)[C@@H](C)O)[C@@H](C)O)C(=O)N[C@@H](CCC(N)=O)C(=O)N[C@@H](C)C(=O)N[C@@H](C)C(=O)N3)[C@@H](C)CC)C(=O)N[C@@H](Cc3c[nH]c4ccccc34)C(=O)N[C@@H](CC(C)C)C(=O)N[C@@H](CC(C)C)C(=O)N[C@@H](CCC(N)=O)C(=O)N[C@H](C(N)=O)[C@@H](C)O)[C@H](O)[C@H](O)[C@H]2O)[C@@H](O)[C@H](O)[C@H]1O [EU-A1024]
fat mass (NMR) (DIO C57BL/6J mice; [2]): reduced fat mass | lean mass (NMR) (DIO C57BL/6J mice; [2]): little effect on lean mass | basal insulin secretion (DIO C57BL/6J mice; [3]): reduced basal insulin secretion | glucose excursion in the oral glucose tolerance test (OGTT) (DIO C57BL/6J mice; [3]): reduced glucose excursion | glucose-dependent insulin secretion (DIO C57BL/6J mice; [3]): increased glucose-dependent insulin secretion | weight gain (DIO C57BL/6J mice; sc on days 1 (0 and 7 hr), 3, 6, 9, 12, 15, 18, 21 and 24 (FIG. 10)): reduced weight gain

— patent US11541028B2, “Peptide pharmaceuticals for treatment of NASH and other disorders” (Mederis Diabetes LLC, priority 2018, dated 2023)
